Here are results for four compounds from patent publication US10189845B2, “4,6-substituted-pyrazolo[1,5-a]pyrazines as janus kinase inhibitors” (ARRAY BIOPHARMA INC., priority 2014, dated 2019).

Common to all, as to type: biochemical
One assay has as its target JAK3 (Homo sapiens (Human), UniProt P52333). Put plainly: JAK3 Inhibition Assay (Example D, Omnia kinase fluorescence peptide substrate assay). The procedure, abridged: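 Mixture held 2 nM JAK3, 1 mM ATP and 10 μM Omnia Y7 peptide in 25 mM HEPES pH 7.4, 10 mM MgCl2, 0.01% Triton X-100, 1 mM DTT, 2% DMSO final. Sox fluorescence (ex 360/em 485 nm) was read every 50 s for 45 min. IC50 came from a 4-parameter logistic fit of percent of control.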

In the next assay the target is JAK2 (Homo sapiens (Human), UniProt O60674). Put plainly: JAK2 Inhibition Assay (Example C, Omnia kinase fluorescence peptide substrate assay). The conditions noted are these: JAK2 Enzyme IC50 1 mM ATP, averaged IC50 ranges. The procedure, abridged:
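4 nM JAK2 with 1 mM ATP and 10 μM Omnia Y7 peptide in 25 mM HEPES pH 7.4, 10 mM MgCl2, 0.01% Triton X-100, 1 mM DTT, 2% DMSO. Sox fluorescence (ex 360/em 485 nm) read every 50 s for 45 min; IC50 from 4-parameter fit of percent of control.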

The target of the next assay is JAK1 (Homo sapiens (Human), UniProt P23458). The assay can be described thus: JAK1 Inhibition Assay (Example B, Omnia kinase fluorescence peptide substrate assay). The essentials: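 Recombinant human JAK1 (12.5 nM) with 1 mM ATP and 8 μM Omnia Y12 Sox-peptide in 25 mM HEPES pH 7.4, 10 mM MgCl2, 0.01% Triton X-100, 1 mM DTT, 2% DMSO final. Phosphorylation read kinetically (ex 360/em 485 nm, 45 min); IC50 from 4-parameter fit of percent of control.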
JAK1, sequence (P23458 whole entry): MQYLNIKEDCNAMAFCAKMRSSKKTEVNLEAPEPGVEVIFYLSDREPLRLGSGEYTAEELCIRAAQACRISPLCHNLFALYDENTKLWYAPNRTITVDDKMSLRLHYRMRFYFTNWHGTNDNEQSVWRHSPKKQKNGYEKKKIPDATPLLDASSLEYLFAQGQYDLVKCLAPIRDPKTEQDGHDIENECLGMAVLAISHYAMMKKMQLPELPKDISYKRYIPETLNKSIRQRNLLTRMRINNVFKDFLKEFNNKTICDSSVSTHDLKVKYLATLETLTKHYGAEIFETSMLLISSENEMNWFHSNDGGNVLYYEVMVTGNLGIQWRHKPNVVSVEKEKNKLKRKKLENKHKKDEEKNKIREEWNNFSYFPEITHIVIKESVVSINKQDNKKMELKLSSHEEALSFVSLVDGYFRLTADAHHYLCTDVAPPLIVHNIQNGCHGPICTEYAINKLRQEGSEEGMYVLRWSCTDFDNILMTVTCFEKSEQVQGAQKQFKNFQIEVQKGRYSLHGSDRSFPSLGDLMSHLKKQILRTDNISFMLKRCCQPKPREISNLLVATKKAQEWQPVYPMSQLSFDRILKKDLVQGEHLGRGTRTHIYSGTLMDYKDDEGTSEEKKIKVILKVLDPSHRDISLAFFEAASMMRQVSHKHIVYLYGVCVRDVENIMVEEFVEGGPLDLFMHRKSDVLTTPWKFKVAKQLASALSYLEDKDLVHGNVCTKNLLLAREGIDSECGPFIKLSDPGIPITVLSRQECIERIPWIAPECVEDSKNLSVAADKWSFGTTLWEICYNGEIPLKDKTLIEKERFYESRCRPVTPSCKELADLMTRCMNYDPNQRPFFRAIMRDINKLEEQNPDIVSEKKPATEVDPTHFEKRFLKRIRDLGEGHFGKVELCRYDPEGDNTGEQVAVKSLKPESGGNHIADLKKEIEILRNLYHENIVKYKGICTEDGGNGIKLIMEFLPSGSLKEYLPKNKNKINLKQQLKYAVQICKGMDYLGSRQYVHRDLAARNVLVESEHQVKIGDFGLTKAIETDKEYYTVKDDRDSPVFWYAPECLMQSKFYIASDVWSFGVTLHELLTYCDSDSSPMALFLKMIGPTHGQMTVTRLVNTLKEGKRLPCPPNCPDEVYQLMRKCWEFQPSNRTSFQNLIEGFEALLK

The target in a further assay is Human Tyk2 kinase domain (Homo sapiens (Human), UniProt P29597). The assay can be described thus: Tyk2 Inhibition Assay (Example A, Omnia kinase fluorescence peptide substrate assay). The conditions noted are these: TYK2 Enzyme IC50 1 mM ATP, averaged IC50 ranges. The essentials: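 Omnia Sox-peptide kinetic fluorescence assay (ex 360/em 485 nm, read every 50 s for 45 min) with 1 nM human Tyk2 kinase domain (aa 886–1187, His tag cleaved, baculovirus-expressed), 1 mM ATP, 8 μM Omnia Y12 peptide, in 25 mM HEPES pH 7.4, 10 mM MgCl2, 0.01% Triton X-100, 1 mM DTT, 2% DMSO. IC50 from 4-parameter logistic fit of percent of control.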
Human Tyk2 kinase domain, sequence (P29597 886-1187): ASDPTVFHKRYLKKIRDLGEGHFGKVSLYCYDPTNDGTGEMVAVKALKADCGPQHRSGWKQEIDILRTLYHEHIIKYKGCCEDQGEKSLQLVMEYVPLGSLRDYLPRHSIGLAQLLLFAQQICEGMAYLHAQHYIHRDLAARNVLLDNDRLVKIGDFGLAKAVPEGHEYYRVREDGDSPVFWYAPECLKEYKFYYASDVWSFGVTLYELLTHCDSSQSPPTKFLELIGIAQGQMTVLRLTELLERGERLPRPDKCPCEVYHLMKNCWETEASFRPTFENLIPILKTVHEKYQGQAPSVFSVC

JAK3, sequence (P52333 whole entry): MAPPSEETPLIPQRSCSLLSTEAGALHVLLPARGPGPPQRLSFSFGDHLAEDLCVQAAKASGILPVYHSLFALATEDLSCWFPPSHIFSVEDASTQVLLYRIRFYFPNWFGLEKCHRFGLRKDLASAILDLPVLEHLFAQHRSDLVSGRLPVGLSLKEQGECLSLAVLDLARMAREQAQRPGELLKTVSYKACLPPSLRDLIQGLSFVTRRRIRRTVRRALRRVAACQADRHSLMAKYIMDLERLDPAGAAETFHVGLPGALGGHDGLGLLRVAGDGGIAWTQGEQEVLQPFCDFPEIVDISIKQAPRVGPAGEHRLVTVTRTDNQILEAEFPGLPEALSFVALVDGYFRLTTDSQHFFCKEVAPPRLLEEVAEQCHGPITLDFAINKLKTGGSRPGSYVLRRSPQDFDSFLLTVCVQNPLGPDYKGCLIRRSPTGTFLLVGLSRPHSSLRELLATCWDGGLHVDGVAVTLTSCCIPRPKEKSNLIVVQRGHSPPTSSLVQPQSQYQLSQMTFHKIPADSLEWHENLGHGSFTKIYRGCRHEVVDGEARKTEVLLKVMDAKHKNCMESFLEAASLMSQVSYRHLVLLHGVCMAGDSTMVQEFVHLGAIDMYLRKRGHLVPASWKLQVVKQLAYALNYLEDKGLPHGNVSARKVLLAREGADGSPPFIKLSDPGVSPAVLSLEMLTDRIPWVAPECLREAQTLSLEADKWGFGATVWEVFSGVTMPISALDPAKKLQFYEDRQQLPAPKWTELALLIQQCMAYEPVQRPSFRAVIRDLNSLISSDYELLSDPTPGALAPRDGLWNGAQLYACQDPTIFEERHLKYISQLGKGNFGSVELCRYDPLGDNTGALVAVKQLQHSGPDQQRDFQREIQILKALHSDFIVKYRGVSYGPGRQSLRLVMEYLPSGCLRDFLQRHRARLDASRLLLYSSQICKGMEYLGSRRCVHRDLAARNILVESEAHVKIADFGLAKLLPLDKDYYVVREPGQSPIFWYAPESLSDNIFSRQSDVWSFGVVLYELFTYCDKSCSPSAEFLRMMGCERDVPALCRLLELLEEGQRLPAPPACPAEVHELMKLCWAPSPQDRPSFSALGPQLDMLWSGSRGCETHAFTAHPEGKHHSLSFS
JAK2, sequence (O60674 whole entry): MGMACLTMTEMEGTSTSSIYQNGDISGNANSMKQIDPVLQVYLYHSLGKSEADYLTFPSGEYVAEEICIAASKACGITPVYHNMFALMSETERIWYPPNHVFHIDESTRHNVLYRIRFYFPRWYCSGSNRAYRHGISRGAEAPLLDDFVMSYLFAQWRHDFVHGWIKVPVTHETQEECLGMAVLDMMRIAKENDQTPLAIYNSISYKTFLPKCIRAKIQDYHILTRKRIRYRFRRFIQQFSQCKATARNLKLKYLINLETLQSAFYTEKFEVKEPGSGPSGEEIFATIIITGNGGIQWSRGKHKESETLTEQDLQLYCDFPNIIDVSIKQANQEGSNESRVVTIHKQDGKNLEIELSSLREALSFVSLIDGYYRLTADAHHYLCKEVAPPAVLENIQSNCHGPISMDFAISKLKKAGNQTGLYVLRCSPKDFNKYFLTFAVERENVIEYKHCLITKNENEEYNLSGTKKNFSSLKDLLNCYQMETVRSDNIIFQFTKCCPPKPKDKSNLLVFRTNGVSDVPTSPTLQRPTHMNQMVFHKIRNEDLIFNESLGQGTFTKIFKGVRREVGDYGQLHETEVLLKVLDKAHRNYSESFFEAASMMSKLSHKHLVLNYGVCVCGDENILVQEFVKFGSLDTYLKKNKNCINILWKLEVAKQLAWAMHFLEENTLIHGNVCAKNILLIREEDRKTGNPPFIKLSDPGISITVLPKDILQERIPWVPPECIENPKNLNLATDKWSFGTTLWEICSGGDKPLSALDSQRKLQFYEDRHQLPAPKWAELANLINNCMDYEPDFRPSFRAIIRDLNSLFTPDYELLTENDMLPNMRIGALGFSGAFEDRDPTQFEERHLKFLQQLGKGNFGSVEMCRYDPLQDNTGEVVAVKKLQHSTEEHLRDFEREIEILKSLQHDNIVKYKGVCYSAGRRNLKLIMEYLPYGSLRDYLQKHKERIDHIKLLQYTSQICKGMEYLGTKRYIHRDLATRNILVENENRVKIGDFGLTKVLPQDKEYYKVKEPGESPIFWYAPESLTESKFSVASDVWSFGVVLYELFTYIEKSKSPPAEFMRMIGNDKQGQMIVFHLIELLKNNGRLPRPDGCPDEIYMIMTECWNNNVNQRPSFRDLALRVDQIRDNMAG

The term IC50 denotes the point on the concentration scale where inhibition reaches its midpoint. For `CC[C@H](C1CC1)n1cc(-c2nc(-c3cnn(C[C@H](C)O)c3)cn3nccc23)cn1` [Example 218, (S)-1-(4-(4-(1-((R)-1-cyclopropylpropyl)-1H-pyrazol-4-yl)pyrazolo[1,5-a]pyrazin-6-yl)-1H-pyrazol-1-yl)propan-2-ol], the IC50 against JAK3 is 1000 to 10000 nM; against JAK2 it was 10 to 100 nM; against JAK1, 100 to 1000 nM; at Human Tyk2 kinase domain it was 10 to 100 nM.
For `CCC(CC)n1cc(-c2nc(-c3cnn(C[C@H]4CNCCO4)c3)cn3nccc23)cn1` [compound 128, (R)-2-((4-(4-(1-(pentan-3-yl)-1H-pyrazol-4-yl)pyrazolo[1,5-a]pyrazin-6-yl)-1H-pyrazol-1-yl)methyl)morpholine], the IC50 at JAK3 was 1000 to 10000 nM; on JAK2, 100 to 1000 nM; at JAK1, 1000 to 10000 nM; at Human Tyk2 kinase domain, 100 to 1000 nM.
Turning to `CCC(CC)n1cc(-c2nc(-c3cnn([C@H]4C[C@@H](CO)C4)c3)cn3nccc23)cn1` [compound 166, (cis-3-(4-(4-(1-(pentan-3-yl)-1H-pyrazol-4-yl)pyrazolo[1,5-a]pyrazin-6-yl)-1H-pyrazol-1-yl)cyclobutyl)methanol], the IC50 at JAK3 was in the range of 1000 to 10000 nM; against JAK2, 10 to 100 nM; on JAK1 it was 100 to 1000 nM; on Human Tyk2 kinase domain, 10 to 100 nM.
On to `CCC(CC)n1cc(-c2nc(-c3cnn(C4CN(C(=O)CO)C4)c3)cn3nccc23)cn1` [compound 174, 2-hydroxy-1-(3-(4-(4-(1-(pentan-3-yl)-1H-pyrazol-4-yl)pyrazolo[1,5-a]pyrazin-6-yl)-1H-pyrazol-1-yl)azetidin-1-yl)ethanone], for which the IC50 lay within 1000 to 10000 nM against JAK3, 10 to 100 nM at JAK2, 100 to 1000 nM at JAK1 and 10 to 100 nM against Human Tyk2 kinase domain.
